The target of one assay is T1, RET-CCDC6 (PTC1) (Homo sapiens, UniProt P07949).
T1 construct: purchased Reaction Biology Corp
Kind of assay: Kinase panel inhibition, radiolabeled [γ-33P] ATP (Reaction Biology Corp). It counts as biochemical. Conditions: ATP 1 µM; for remaining activity at 10 µM: compound at 10 uM; for remaining activity at 30 µM: compound at 30uM.

In another assay the target is T2, RET (G810S/M918T) (Homo sapiens, UniProt P07949, G810S/M918T).
T2 construct: purchased Reaction Biology Corp
T2 sequence (P07949 29-1114 G810S/M918T): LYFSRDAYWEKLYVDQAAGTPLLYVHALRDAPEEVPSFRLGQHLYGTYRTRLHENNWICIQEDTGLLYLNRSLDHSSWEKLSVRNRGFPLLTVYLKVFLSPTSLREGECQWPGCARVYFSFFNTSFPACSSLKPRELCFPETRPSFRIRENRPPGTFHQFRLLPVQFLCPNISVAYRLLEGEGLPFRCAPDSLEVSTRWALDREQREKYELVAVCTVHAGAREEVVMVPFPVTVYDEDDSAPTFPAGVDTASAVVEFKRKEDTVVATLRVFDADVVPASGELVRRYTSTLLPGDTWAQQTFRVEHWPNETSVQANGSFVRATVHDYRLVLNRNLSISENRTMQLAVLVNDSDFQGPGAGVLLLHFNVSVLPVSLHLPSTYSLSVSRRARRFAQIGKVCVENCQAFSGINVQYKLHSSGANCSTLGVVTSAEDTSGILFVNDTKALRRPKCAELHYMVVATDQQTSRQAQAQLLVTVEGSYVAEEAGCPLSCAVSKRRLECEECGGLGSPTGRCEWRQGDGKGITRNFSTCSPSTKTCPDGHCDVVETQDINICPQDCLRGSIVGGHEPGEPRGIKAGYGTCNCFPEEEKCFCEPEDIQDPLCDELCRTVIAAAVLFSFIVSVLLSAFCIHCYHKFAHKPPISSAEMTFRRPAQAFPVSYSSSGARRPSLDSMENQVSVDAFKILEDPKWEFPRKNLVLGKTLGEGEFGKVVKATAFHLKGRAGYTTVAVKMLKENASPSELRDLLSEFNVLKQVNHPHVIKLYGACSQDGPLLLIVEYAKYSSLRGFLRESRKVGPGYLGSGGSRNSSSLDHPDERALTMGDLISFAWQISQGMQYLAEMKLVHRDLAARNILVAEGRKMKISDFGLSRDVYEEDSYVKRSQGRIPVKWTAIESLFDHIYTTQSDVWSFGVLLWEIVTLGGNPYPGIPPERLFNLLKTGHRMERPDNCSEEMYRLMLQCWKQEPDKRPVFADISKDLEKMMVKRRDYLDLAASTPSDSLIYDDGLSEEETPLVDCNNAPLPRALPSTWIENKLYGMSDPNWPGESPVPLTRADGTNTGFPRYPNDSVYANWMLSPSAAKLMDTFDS
Described as above. In kind it is biochemical. Conditions: ATP 1 µM; for remaining activity at 10 µM: compound at 10 uM; for remaining activity at 30 µM: compound at 30uM.

The test system of another assay is A-549. Kind of assay: Cell proliferation inhibition, Cell Counting Kit-8, non-small cell lung cancer cell line. It counts as cell-based. Conditions: A-549 cell line; 72 hours incubation; test concentration not given. Background: Formazan colour is commonly taken as a measure of viable cells.
[1] abbreviates: Data 1, read-out: % Enzyme Activity (relative to DMSO controls) RET-CCDC6 (PTC1) Data 1.
The mark [2] stands for this setting: Data 2, read-out: % Enzyme Activity (relative to DMSO controls) RET-CCDC6 (PTC1) Data 2.
[3] abbreviates: Data 1, read-out: % Enzyme Activity (relative to DMSO controls) RET (G810S/M918T) Data 1.
Setting [4] is: Data 2, read-out: % Enzyme Activity (relative to DMSO controls) RET (G810S/M918T) Data 2.

Read-outs that look alike come from different tables or passages of the source.

T1 sequence (P07949 whole entry, looked up): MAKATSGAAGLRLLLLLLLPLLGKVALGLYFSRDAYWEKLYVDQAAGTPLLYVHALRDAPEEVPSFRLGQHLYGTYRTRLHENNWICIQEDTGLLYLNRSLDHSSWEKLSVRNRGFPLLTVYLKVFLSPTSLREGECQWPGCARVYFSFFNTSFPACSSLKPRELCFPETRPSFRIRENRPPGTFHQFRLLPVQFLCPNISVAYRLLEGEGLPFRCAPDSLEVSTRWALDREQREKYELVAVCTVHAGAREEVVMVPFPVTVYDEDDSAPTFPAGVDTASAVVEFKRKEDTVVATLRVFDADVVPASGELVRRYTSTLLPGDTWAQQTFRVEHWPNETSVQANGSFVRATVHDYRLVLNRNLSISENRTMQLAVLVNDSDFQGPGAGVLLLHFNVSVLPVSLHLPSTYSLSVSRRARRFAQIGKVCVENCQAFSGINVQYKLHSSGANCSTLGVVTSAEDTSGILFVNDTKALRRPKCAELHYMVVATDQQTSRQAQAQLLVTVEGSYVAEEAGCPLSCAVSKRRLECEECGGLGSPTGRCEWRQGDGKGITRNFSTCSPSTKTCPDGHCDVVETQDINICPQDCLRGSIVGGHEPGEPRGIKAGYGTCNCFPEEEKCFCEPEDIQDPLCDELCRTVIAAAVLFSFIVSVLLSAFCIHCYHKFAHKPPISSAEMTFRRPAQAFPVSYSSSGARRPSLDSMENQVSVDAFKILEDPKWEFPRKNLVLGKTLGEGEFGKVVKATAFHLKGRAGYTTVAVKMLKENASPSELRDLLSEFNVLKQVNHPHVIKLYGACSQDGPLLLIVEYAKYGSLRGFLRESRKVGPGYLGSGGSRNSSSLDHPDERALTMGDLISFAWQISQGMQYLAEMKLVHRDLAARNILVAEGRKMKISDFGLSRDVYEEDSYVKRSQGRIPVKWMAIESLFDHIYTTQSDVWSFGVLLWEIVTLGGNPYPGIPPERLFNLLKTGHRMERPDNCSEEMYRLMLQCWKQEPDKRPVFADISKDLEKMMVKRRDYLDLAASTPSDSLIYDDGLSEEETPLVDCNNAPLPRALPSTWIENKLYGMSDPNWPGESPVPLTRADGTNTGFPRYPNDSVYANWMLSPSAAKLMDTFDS

As for `CCCNc1cc(-c2ccc(N3CC(Oc4cccc(F)c4)C3)nc2)c2nccnc2c1` [Example 4, 8-(6-(3-(3-fluorophenoxy)azetidin-1-yl)pyridin-3-yl)-N-propylquinoxalin-6-amine], the remaining activity at 10 µM on RET-CCDC6 (PTC1) (setting [1]) is 1.11%; on RET-CCDC6 (PTC1) (setting [2]) it was 1.31%; on RET (G810S/M918T) (setting [3]), -0.23%; at RET (G810S/M918T) (setting [4]), 0.04%. Moreover, the “Cell Proliferation (% of control)” value with A-549 is listed as 43.59%.

As to `CC(C)Nc1cc(-c2ccc(N3CC(Oc4cccc(F)c4)C3)nc2)c2nccnc2c1` [Example 5, 8-(6-(3-(3-fluorophenoxy)azetidin-1-yl)pyridin-3-yl)-N-isopropylquinoxalin-6-amine], the remaining activity at 10 µM on RET-CCDC6 (PTC1) (setting [1]) was found to be 1.34%; at RET-CCDC6 (PTC1) (setting [2]), 0.72%; at RET (G810S/M918T) (setting [3]), 5.96%; on RET (G810S/M918T) (setting [4]) it was 6.14%. For the same molecule, the “Cell Proliferation (% of control)” value in the assay with A-549 is 36.07%.

For the molecule `CCCCNc1cc(-c2ccc(N3CC(Oc4cccc(F)c4)C3)nc2)c2nccnc2c1` [Example 6, N-butyl-8-(6-(3-(3-fluorophenoxy)azetidin-1-yl)pyridin-3-yl)quinoxalin-6-amine], the remaining activity at 10 µM was found to be 1.05% at RET-CCDC6 (PTC1) (setting [1]), 1.32% on RET-CCDC6 (PTC1) (setting [2]), 2.18% at RET (G810S/M918T) (setting [3]) and 2.37% at RET (G810S/M918T) (setting [4]). The “Cell Proliferation (% of control)” value with A-549 came out at 68.59%.

Consider `CC(C)CNc1cc(-c2ccc(N3CC(Oc4cccc(F)c4)C3)nc2)c2nccnc2c1` [Example 7, 8-(6-(3-(3-fluorophenoxy)azetidin-1-yl)pyridin-3-yl)-N-isobutylquinoxalin-6-amine], for which the remaining activity at 10 µM is 0.85% at RET-CCDC6 (PTC1) (setting [1]), 1.07% on RET-CCDC6 (PTC1) (setting [2]), 4.28% on RET (G810S/M918T) (setting [3]) and 4.26% at RET (G810S/M918T) (setting [4]). The “Cell Proliferation (% of control)” value in the assay with A-549 amounted to 53.57%.

As to `O=C(Nc1cc(-c2ccc(N3CC(Oc4cccc(F)c4)C3)nc2)c2nccnc2c1)c1ccccn1` [Example 9, N-(8-(6-(3-(3-fluorophenoxy)azetidin-1-yl)pyridin-3-yl)quinoxalin-6-yl)picolinamide], the remaining activity at 10 µM worked out at 2.81% on RET-CCDC6 (PTC1) (setting [1]), 3.74% at RET-CCDC6 (PTC1) (setting [2]), 49.5% on RET (G810S/M918T) (setting [3]) and 50% on RET (G810S/M918T) (setting [4]). Moreover, the “Cell Proliferation (% of control)” value with A-549 amounted to 18.67%.

Consider `CCCNc1cc(-c2ccc(N3CC[C@H](NC(=O)c4ccccc4F)C3)nc2)c2nccnc2c1` [Example 13, (S)-2-fluoro-N-(1-(5-(7-(propylamino)quinoxalin-5-yl)pyridin-2-yl)pyrrolidin-3-yl)benzamide], for which the remaining activity at 10 µM on RET-CCDC6 (PTC1) (setting [1]) is 0.91%; on RET-CCDC6 (PTC1) (setting [2]), 1.28%; at RET (G810S/M918T) (setting [3]), -0.06%; at RET (G810S/M918T) (setting [4]), -0.31%. Moreover, the “Cell Proliferation (% of control)” value with A-549 is 39.32%.

Regarding `CC(C)Nc1cc(-c2ccc(N3CC[C@H](NC(=O)c4ccccc4F)C3)nc2)c2nccnc2c1` [Example 14, (S)-2-fluoro-N-(1-(5-(7-(isopropylamino)quinoxalin-5-yl)pyridin-2-yl)pyrrolidin-3-yl)benzamide], the remaining activity at 10 µM at RET-CCDC6 (PTC1) (setting [1]) was found to be 1.04%; on RET-CCDC6 (PTC1) (setting [2]) it was 0.72%; on RET (G810S/M918T) (setting [3]) it was 5.08%; on RET (G810S/M918T) (setting [4]), 4.68%. Further, in the assay on A-549, the “Cell Proliferation (% of control)” value worked out at 47.83%.

For `Nc1cc(-c2ccc(F)nc2)c2nccnc2c1` [Intermediate Compound 4, 8-(6-fluoropyridin-3-yl)quinoxalin-6-amine], the remaining activity at 30 µM at RET-CCDC6 (PTC1) (setting [1]) was found to be 20.9%; at RET-CCDC6 (PTC1) (setting [2]), 19.4%; at RET (G810S/M918T) (setting [3]), 53.5%; on RET (G810S/M918T) (setting [4]), 54.1%.

With `CNc1cc(-c2ccc(F)nc2)c2nccnc2c1` [Intermediate Compound 5, 8-(6-fluoropyridin-3-yl)-N-methylquinoxalin-6-amine], the remaining activity at 30 µM on RET-CCDC6 (PTC1) (setting [1]) was 5.67%; on RET-CCDC6 (PTC1) (setting [2]), 3.67%; at RET (G810S/M918T) (setting [3]), 13.3%; at RET (G810S/M918T) (setting [4]), 14.4%.

Regarding `CCCNc1cc(-c2ccc(F)nc2)c2nccnc2c1` [Intermediate Compound 7], the remaining activity at 30 µM was 24% on RET (G810S/M918T) (setting [3]) and 22.3% on RET (G810S/M918T) (setting [4]).

As for `CC(C)Nc1cc(-c2ccc(F)nc2)c2nccnc2c1` [Intermediate Compound 8, 8-(6-fluoropyridin-3-yl)-N-isopropylquin oxalin-6-amine], the remaining activity at 30 µM stood at 7.38% on RET-CCDC6 (PTC1) (setting [1]), 7.71% on RET-CCDC6 (PTC1) (setting [2]), 66.5% at RET (G810S/M918T) (setting [3]) and 68.4% at RET (G810S/M918T) (setting [4]).

Consider `CCCCNc1cc(-c2ccc(F)nc2)c2nccnc2c1` [Intermediate Compound 9, N-butyl-8-(6-fluoropyridin-3-yl)quinoxalin-6-amine], for which the remaining activity at 30 µM on RET (G810S/M918T) (setting [3]) amounted to 24.8%; at RET (G810S/M918T) (setting [4]) it was 25.3%.

On to `CC(C)CNc1cc(-c2ccc(F)nc2)c2nccnc2c1` [Intermediate Compound 10, 8-(6-Fluoropyridin-3-yl)-N-isobutylquinoxalin-6-amine], for which the remaining activity at 30 µM on RET (G810S/M918T) (setting [3]) came to 43.1%; on RET (G810S/M918T) (setting [4]), 40.1%.

In the case of `O=C(Nc1cc(Br)c2nccnc2c1)c1ccccn1` [Intermediate Compound 12, N-(8-Bromoquinoxalin-6-yl)picolinamide], the remaining activity at 30 µM worked out at 100% at RET (G810S/M918T) (setting [3]) and 96.4% at RET (G810S/M918T) (setting [4]).

For the molecule `O=C(Nc1cc(-c2ccc(F)nc2)c2nccnc2c1)c1ccccn1` [Intermediate Compound 14, N-(8-(6-Fluoropyridin-3-yl)quinoxalin-6-yl)picolinamide], the remaining activity at 30 µM on RET (G810S/M918T) (setting [3]) and at RET (G810S/M918T) (setting [4]) was 92.5% in each case.

As for `Nc1cc(-c2cnc(Cl)nc2)c2nccnc2c1` [Intermediate Compound 16, 8-(2-chloropyrimidin-5-yl)quinoxalin-6-amine], the remaining activity at 30 µM came out at 13.2% on RET-CCDC6 (PTC1) (setting [1]), 13.3% on RET-CCDC6 (PTC1) (setting [2]), 40.8% at RET (G810S/M918T) (setting [3]) and 39.1% on RET (G810S/M918T) (setting [4]).

With `CCCNc1cc(Br)c2nccnc2c1` [Intermediate Compound 19, 8-Bromo-N-propylquinoxalin-6-amine], the remaining activity at 30 µM was found to be 27.6% at RET (G810S/M918T) (setting [3]) and 28.3% at RET (G810S/M918T) (setting [4]).

As for `CC(C)Nc1cc(Br)c2nccnc2c1` [Intermediate Compound 20, 8-Bromo-N-isopropylquin oxalin-6-amine], the remaining activity at 30 µM on RET-CCDC6 (PTC1) (setting [1]) was 7.86%; on RET-CCDC6 (PTC1) (setting [2]) it was 7.51%; at RET (G810S/M918T) (setting [3]), 69.1%; on RET (G810S/M918T) (setting [4]) it was 73.1%.

`CCCCNc1cc(Br)c2nccnc2c1` [Intermediate Compound 21, 8-Bromo-N-butylquinoxalin-6-amine]: the remaining activity at 30 µM turned out to be 20.8% at RET (G810S/M918T) (setting [3]) and 21.7% on RET (G810S/M918T) (setting [4]).

In the case of `CC(C)CNc1cc(Br)c2nccnc2c1` [Intermediate Compound 22, 8-Bromo-N-isobutylquino xalin-6-amine], the remaining activity at 30 µM came to 49.4% on RET (G810S/M918T) (setting [3]) and 48.9% at RET (G810S/M918T) (setting [4]).

For the origin of these results see EP4796538A1, “NOVEL QUINOXALINE COMPOUNDS, MANUFACTURING METHOD THEREOF, AND USES THEREOF” (Gachon University of Industry-Academic Cooperation …, priority 2023, dated 2025).
